In patent publication US20230031406A1, “COMPOUNDS AND COMPOSITIONS FOR TREATING CONDITIONS ASSOCIATED WITH NLRP ACTIVITY” (Novartis AG, priority 2018, published 2023):
Where two headings read alike, the source gives them in different places. Blank lines part the entries; values can stand above or below the compound they belong to.

Tested on: PMA-differentiated THP-1 cells
Test: IL-1β production in PMA-differentiated THP-1 cells stimulated with gramicidin (hTHP-1 assay containing 2% fetal bovine serum; Procedures 1 and 2)
Assay type: cell-based, human
Details: 2% fetal bovine serum
Procedure: The following protocol is suitable for testing the activity of the compounds disclosed herein. Procedure 1: IL-1β Production in PMA-Differentiated THP-1 Cells Stimulated with Gramicidin.
THP-1 cells were purchased from the American Type Culture Collection and sub-cultured according to instructions from the supplier. Cells were cultured in complete RPMI 1640 (containing 10% heat inactivated FBS, penicillin (100 units/ml) and streptomycin (100 μg/ml)), and maintained in log phase prior to experimental setup. Prior to the experiment, compounds were dissolved in dimethyl sulfoxide (DMSO) to generate a 30 mM stock. The compound stock was first pre-diluted in DMSO to 3, 0.34, 0.042 and 0.0083 mM intermediate concentrations and subsequently spotted using Echo550 liquid handler into an empty 384-well assay plate to achieve desired final concentration (e.g. 100, 33, 11, 3.7, 1.2, 0.41, 0.14, 0.046, 0.015, 0.0051, 0.0017 μM). DMSO was backfilled in the plate to achieve a final DMSO assay concentration of 0.37%. The plate was then sealed and stored at room temperature until required.
THP-1 cells were treated with PMA (Phorbol 12-myristate 13-acetate) (20 ng/ml) for 16-18 hours. On the day of the experiment the media was removed and adherent cells were detached with trypsin for 5 minutes. Cells were then harvested, washed with complete RPMI 1640, spun down, and resuspended in RPMI 1640 (containing 2% heat inactivated FBS, penicillin (100 units/ml) and streptomycin (100 μg/ml). The cells were plated in the 384-well assay plate containing the spotted compounds at a density of 50,000 cells/well (final assay volume 50 μl). Cells were incubated with compounds for 1 hour and then stimulated with gramicidin (5 μM) (Enzo) for 2 hours. Plates were then centrifuged at 340 g for 5 min. Cell free supernatant (40 μL) was collected using a 96—CHannel PlateMaster (Gilson) and the production of IL-1β was evaluated by HTRF (cisbio). The plates were incubated for 18 h at 4° C. and read using the preset HTRF program (donor emission at 620 nm, acceptor emission at 668 nm) of the SpectraMax i3x spectrophotometer (Molecular Devices, software SoftMax 6). A vehicle only control and a dose titration of CRID3 (100-0.0017 μM) were run concurrently with each experiment.
Procedure 2: IL-1β Production in PMA-Differentiated THP-1 Cells Stimulated with Gramicidin.
THP-1 cells were purchased from the American Type Culture Collection and sub-cultured according to instructions from the supplier. Prior to experiments, cells were cultured in complete RPMI 1640 (containing 10% heat inactivated FBS, penicillin (100 units/ml) and streptomycin (100 μg/ml)), and maintained in log phase prior to experimental setup. Prior to the experiment THP-1 were treated with PMA (Phorbol 12-myristate 13-acetate) (20 ng/ml) for 16-18 hours. Compounds were dissolved in dimethyl sulfoxide (DMSO) to generate a 30mM stock. On the day of the experiment the media was removed and adherent cells were detached with trypsin for 5 minutes. Cells were then harvested, washed with complete RPMI 1640, spun down, resuspended in RPMI 1640 (containing 2% heat inactivated FBS, penicillin (100 units/ml) and streptomycin (100 μg/ml). The cells were plated in a 384-well plate at a density of 50,000 cells/well (final assay volume […]). Compounds were first dissolved in assay medium to obtain a 5× top concentration of 500 μM. 10 step dilutions (1:3) were then undertaken in assay medium containing 1.67% DMSO. 5× compound solutions were added to the culture medium to achieve desired final concentration (e.g. 100, 33, 11, 3.7, 1.2, 0.41, 0.14, 0.046, 0.015, 0.0051, 0.0017 μM). Final DMSO concentration was at 0.37%. Cells were incubated with compounds for 1 hour and then stimulated with gramicidin (5 μM) (Enzo) for 2 hours. Plates were then centrifuged at 340 g for 5 min. Cell free supernatant (40 μL) was collected using a 96—CHannel PlateMaster (Gilson) and the production of IL-1β was evaluated by HTRF (cisbio). […]

[1] = Table B1, class symbols, read-out: Average IC50 of compounds in hTHP-1 assay: hTHP-1 IC50
[2] = Homo sapiens, THP-1, Table B2, class symbols, read-out: hTHP-1 IC50
[3] = Table B3, hTHP-1 assay, class symbols, read-out: IC50
[4] = Homo sapiens, THP-1, Table B1, class symbols, read-out: Average IC50 of compounds in hTHP-1 assay: hTHP-1 IC50
[5] = Homo sapiens, THP-1, Table B3, hTHP-1 assay, class symbols, read-out: IC50

IC50 [1]: 0.04 to 0.2 µM
SMILES: CC(C)c1ncc(F)c(C(C)C)c1NC(=O)N=S(N)(=O)c1nc(C(C)(C)O)cs1 (single isomer, unassigned) [Compound 163a, (R) or (S)-N′-((5-fluoro-2,4-diisopropylpyridin-3-yl)carbamoyl)-4-(2-hydroxypropan-2-yl)thiazole-2-sulfonimidamide]

IC50 [1]: 5 to 30 µM
SMILES: CC1CCc2c1nc1c(c2NC(=O)N=S(N)(=O)c2ncc(C(C)(C)O)s2)CCC1 (single isomer, unassigned) [Compound 140ba, (S,S) or (S,R)-5-(2-hydroxypropan-2-yl)-N′-((3-methyl-1,2,3,5,6,7-hexa-hydrodicyclo-penta[b,e]pyridin-8-yl)carbamoyl)thiazole-2-sulfonimidamide]

IC50 [2]: 1 to 5 µM
SMILES: CC(C)(O)c1cc(C#N)cc(S(N)(=O)=NC(=O)Nc2c3c(nc4c2CCC4(C)C)CCC3)c1 (stereo not drawn) [Compound 674, 3-Cyano-N′-((3,3-dimethyl-1,2,3,5,6,7-hexahydrodicyclopenta[b,e]pyridin-8-yl)carbamoyl)-5-(2-hydroxypropan-2-yl)benzenesulfonimidamide]

IC50 [1]: 5 to 30 µM
SMILES: CC1CCc2c1nc1c(c2NC(=O)N=S(N)(=O)c2ncc(C(C)(C)O)s2)CCC1 (single isomer, unassigned) [Compound 140b, (S,R/S) or (R,R/S)-5-(2-hydroxypropan-2-yl)-N′-((3-methyl-1,2,3,5,6,7-hexa-hydrodicyclo-penta[b,e]pyridin-8-yl)carbamoyl)thiazole-2-sulfonimidamide]

IC50 [3]: 1 to 5 µM
SMILES: CC(C)(O)c1cc(F)c(S(N)(=O)=NC(=O)Nc2c3c(nc(C4CC4)c2C2CC2)CCC3)s1 (single isomer, unassigned) [Example 698, (S) or (R)-N′-((2,3-dicyclopropyl-6,7-dihydro-5H-cyclopenta[b]pyridin-4-yl)carbamoyl)-3-fluoro-5-(2-hydroxypropan-2-yl) thiophene-2-sulfonimidamide]

IC50 [2]: 5 to 30 µM
SMILES: CC(C)n1cc(S(N)(=O)=NC(=O)Nc2c3c(nc4c2CCC4(C)C)CCC3)c(CO)n1 (single isomer, unassigned) [Compound 653a, (R) or (S)-N′-((3,3-dimethyl-1,2,3,5,6,7-hexahydrodicyclopenta [b,e]pyridin-8-yl)carbamoyl)-3-(hydroxymethyl)-1-isopropyl-1H-pyrazole-4-sulfonimidamide]

IC50 (Homo sapiens, THP-1, Table B3, hTHP-1 assay, numeric values, read-out: IC50): ~30 µM
SMILES: Cc1c(C(F)(F)F)nc2c(c1NC(=O)N=S(N)(=O)c1cc(CO)n(C(C)C)n1)CCC2 (single isomer, unassigned) [Example 720, (R) or (S)-5-(hydroxymethyl)-1-isopropyl-N′-((3-methyl-2-(trifluoromethyl)-6,7-dihydro-5H-cyclopenta[b]pyridin-4-yl)carbamoyl)-1H-pyrazole-3-sulfonimidamide]

IC50 [4]: 0.04 to 0.2 µM
SMILES: CC1CCc2c1nc1c(c2NC(=O)N=S(N)(=O)c2ncc(C(C)(C)O)s2)CCC1 (single isomer, unassigned) [Compound 140aa, (R,R) or (R,S)-5-(2-hydroxypropan-2-yl)-N′-((3-methyl-1,2,3,5,6,7-hexa-hydrodicyclo-penta[b,e]pyridin-8-yl)carbamoyl)thiazole-2-sulfonimidamide]

IC50 (Table B4, class symbols, read-out: hTHP-1 IC50): 0.008 to 0.04 µM
SMILES: NS(=O)(=NC(=O)Nc1c2c(nc(C(F)(F)F)c1-c1ccccc1)CCC2)c1nn(C(F)F)cc1F (single isomer, unassigned) [Example 765, (R) or (S)-1-(difluoromethyl)-4-fluoro-N′-((3-phenyl-2-(trifluoromethyl)-6,7-dihydro-5H-cyclopenta [b]pyridin-4-yl)carbamoyl)-1H-pyrazole-3-sulfonimidamide]

IC50 (Table B2, class symbols, read-out: hTHP-1 IC50): 5 to 30 µM
SMILES: CC(C)(O)c1csc(S(N)(=O)=NC(=O)Nc2c3c(nc(C4CC4)c2C2CC2)CCC3)c1 (single isomer, unassigned) [Compound 670a, (S) or (R)-N′-((2,3-dicyclopropyl-6,7-dihydro-5H-cyclopenta[b]pyridin-4-yl)carbamoyl)-4-(2-hydroxypropan-2-yl)thiophene-2-sulfonimidamide]

IC50 [2]: 5 to 30 µM
SMILES: Cc1c(C(C)(C)C)nc2c(c1NC(=O)N=S(N)(=O)c1cc(C(C)(C)O)cs1)CCC2 (stereo not drawn) [Compound 657, N′-((2-(tert-butyl)-3-methyl-6,7-dihydro-5H-cyclopenta[b]pyridin-4-yl)carbamoyl)-4-(2-hydroxypropan-2-yl)thiophene-2-sulfonimidamide]

IC50 [4]: 5 to 30 µM
SMILES: CC(C)c1ncc(F)c(C(C)C)c1NC(=O)N=S(N)(=O)c1ccc(CN(C)C)cc1 (single isomer, unassigned) [Compound 132a, (R) or (S)-4-((dimethyl-amino)methyl)-N′-((5-fluoro-2,4-diisopropylpyridin-3-yl)carbamoyl)benzene-sulfonimidamide]

IC50 [2]: 1 to 5 µM
SMILES: CC(C)(O)c1cc(S(N)(=O)=NC(=O)Nc2c3c(nc4c2CCC4(C)C)CCC3)nn1-c1ccccc1 (single isomer, unassigned) [Compound 663b, (R) or (S)-N′-((3,3-dimethyl-1,2,3,5,6,7-hexahydrodicyclopenta [b,e]pyridin-8-yl)carbamoyl)-5-(2-hydroxypropan-2-yl)-1-phenyl-1H-pyrazole-3-sulfonimidamide]

IC50 [1]: 0.008 to 0.04 µM
SMILES: CC1CCc2c1nc1c(c2NC(=O)N=S(N)(=O)c2cc(C(C)(C)O)cs2)CCC1 (single isomer, unassigned) [Compound 141aa, (R,R) or (R,S)-4-(2-hydroxypropan-2-yl)-N′-((3-methyl-1,2,3,5,6,7-hexahy-drodicyclopenta[b,e]pyridin-8-yl)carbamoyl)thiophene-2-sulfonimidamide]

IC50 [1]: 5 to 30 µM
SMILES: CC(C)(O)c1cnc(S(N)(=O)=NC(=O)Nc2c3c(nc4c2CCC4)CCC3)s1 (single isomer, unassigned) [Compound 167a, (S) or (R)-N′-((1,2,3,5,6,7-hexahydrodicyclo-penta[b,e]pyridin-8-yl)carbamoyl)-5-(2-hydroxypropan-2-yl)thiazole-2-sulfonimidamide]

IC50 [3]: 0.2 to 1 µM
SMILES: NS(=O)(=NC(=O)Nc1c2c(nc(C(F)(F)F)c1C1CC1)CCC2)c1nn(C(F)F)cc1F (stereo not drawn) [Example 615, N′-((3-cyclopropyl-2-(trifluoromethyl)-6,7-dihydro-5H-cyclopenta[b]pyridin-4-yl)carbamoyl)-1-(difluoromethyl)-4-fluoro-1H-pyrazole-3-sulfonimidamide]

IC50 [5]: 1 to 5 µM
SMILES: CO[C@H]1COc2c(S(N)(=O)=NC(=O)Nc3c(C)c(C(F)(F)F)nc4c3CCC4)cnn2C1 (single isomer, unassigned) [Example 656, (R) or (S)-(6R)-6-methoxy-N′-((3-methyl-2-(trifluoromethyl)-6,7-dihydro-5H-cyclopenta[b]pyridin-4-yl)carbamoyl)-6,7-dihydro-5H-pyrazolo[5,1-b][1,3] oxazine-3-sulfonimidamide]

IC50 [5]: 1 to 5 µM
SMILES: CC(C)(O)c1csc(S(N)(=O)=NC(=O)Nc2cc(C(F)(F)F)nc3c2CCC3)c1 (single isomer, unassigned) [Example 667, (R) or (S)-4-(2-hydroxypropan-2-yl)-N′-((2-(trifluoromethyl)-6,7-dihydro-5H-cyclopenta[b]pyridin-4-yl)carbamoyl)thiophene-2-sulfonimidamide]
